Data: PMC10202323, “4′-Deoxypyridoxine disrupts vitamin B6 homeostasis in Escherichia coli K12 through combined inhibition of cumulative B6 uptake and PLP-dependent enzyme activity” (Microbiology, 2023)

Key:
Type in all cases: biochemical
[1] = biological target: T1, GlyA (Escherichia coli, UniProt P0A825); assay: spectrophotometric coupled SHMT assay; conditions: read-out: apparent inhibition constant
T1 construct: recombinant, purified to homogeneity as previously reported; apoenzyme reconstituted with PLP
T1 sequence (P0A825 1-417): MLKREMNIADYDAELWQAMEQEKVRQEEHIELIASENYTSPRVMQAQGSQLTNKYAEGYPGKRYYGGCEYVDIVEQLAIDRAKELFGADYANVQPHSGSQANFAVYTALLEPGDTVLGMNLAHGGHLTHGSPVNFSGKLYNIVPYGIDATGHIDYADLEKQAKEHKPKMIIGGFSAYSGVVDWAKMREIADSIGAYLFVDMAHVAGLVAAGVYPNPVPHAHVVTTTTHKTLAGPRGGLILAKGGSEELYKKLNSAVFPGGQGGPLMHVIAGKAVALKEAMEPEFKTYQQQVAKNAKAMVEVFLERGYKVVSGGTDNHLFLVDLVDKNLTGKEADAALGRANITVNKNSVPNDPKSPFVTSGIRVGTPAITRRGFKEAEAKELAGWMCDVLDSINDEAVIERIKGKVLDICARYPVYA

[2] = biological target: T2, PdxH (Escherichia coli, UniProt P0AFI7); assay: spectrophotometric PLP formation at […] nm; conditions: read-out: apparent inhibition constant
T2 construct: recombinant, purified to homogeneity as previously reported
T2 sequence (P0AFI7 2-218): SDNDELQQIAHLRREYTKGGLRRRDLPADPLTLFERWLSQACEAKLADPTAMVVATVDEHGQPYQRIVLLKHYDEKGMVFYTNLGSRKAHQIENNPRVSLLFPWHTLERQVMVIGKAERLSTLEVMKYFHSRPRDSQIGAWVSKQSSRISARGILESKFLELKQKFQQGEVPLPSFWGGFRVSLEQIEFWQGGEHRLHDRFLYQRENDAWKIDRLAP

[3] = biological target: T3, PdxK (Escherichia coli, UniProt P40191); assay: spectrophotometric PLP formation at […] nm; conditions: read-out: inhibition constant
T3 construct: recombinant, purified to homogeneity as previously reported
T3 sequence (P40191 whole entry): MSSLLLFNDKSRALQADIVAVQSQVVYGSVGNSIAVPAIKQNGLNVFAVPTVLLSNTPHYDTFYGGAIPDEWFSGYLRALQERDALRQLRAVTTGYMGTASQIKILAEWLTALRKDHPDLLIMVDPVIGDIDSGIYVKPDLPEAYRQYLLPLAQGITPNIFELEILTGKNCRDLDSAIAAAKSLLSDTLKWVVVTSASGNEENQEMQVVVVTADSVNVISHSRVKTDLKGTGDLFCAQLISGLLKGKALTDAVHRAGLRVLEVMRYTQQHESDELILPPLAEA

Ki [1] [µM]	Ki [2] [µM]	Ki [3] [µM]	Structure (SMILES)
50 ± 30	530 ± 30		Cc1ncc(COP(=O)(O)O)c(C)c1O [4dPNP]
		0.5 ± 0.6	Cc1ncc(CO)c(C)c1O [4dPN]
